Experiments:
Type in all cases: cell-based
[1] = system: pERK in KRAS G12D mutant cell line ASPC-1; assay: Inhibitory effect on intracellular pERK by In-Cell Western Assay (96-well); conditions: Homo sapiens, ASPC1; pERK inhibition, ASPC-1 cells, 2 h incubation; read-out: ASPC-1, IC50 (nM) KRAS p.G12D
Method: (2) On the first day, the following cells were revived with the corresponding culture medium and incubated in a 5% CO2 incubator at 37 °C until confluence:
(2) On the third day, the culture medium was removed, 2 mL of trypsin was added for digestion, and the cells were placed in an incubator until the cells detached. (3) 5 mL of fresh culture medium was added to resuspend the cells to terminate the digestion, and the cells were gently pipetted and centrifuged at 1000 rpm for 5 minutes at room temperature. (4) The supernatant was removed, and 5 mL of new culture medium was added to resuspend the cells and count them. (5) The cells were adjusted to the appropriate cell concentration with complete culture medium and plated in a 96-well plate. 90 µL of cells were added to each well, the cells were incubated in a 5% CO2 incubator at 37 °C overnight. (6) 10 µL of the prepared serial dilution compound (DMSO final concentration was 0.5%) was added and the cells were incubated in a 5% CO2 incubator at 37 °C for 2 h. (7) The supernatant was discarded, and 200 µL of 4% paraformaldehyde fixative was added to fix the cells. (8) The cells were washed three times with TBST. (9) The blocking solution was added and the cells were incubated at room temperature for 1 h. […]

GP2D = assay: 3D-CTG proliferation inhibition of GP2D cells; conditions: cell proliferation, read after the 8th day of incubation, read-out: GP2D, IC50 (nM) KRAS G12D
Method: (§1) • (1) GP2D and HPAC cells were revived in DMEM medium containing 10% fetal bovine serum and used for experiments after the cells were recovered. • (2) On the first day, the cells were rinsed once with PBS, preheated trypsin was added, and the cells were placed in a 37 °C 5% CO2 incubator for 3-5 minutes. The digestion was terminated by adding an appropriate amount of complete culture medium (containing 10% fetal bovine serum), and the cells were transferred to a centrifuge tube and centrifuged at 1000 rpm for 5 minutes. • (3) The cells were resuspended in complete culture medium, counted, and adjusted to the appropriate cell concentration with complete culture medium. • (4) Using the ECHO 655 ultrasonic liquid handling system, 0.2 µl of the prepared 200× serial dilution compound (final DMSO concentration of 0.5%) was added to a 384-well plate. 40 µl of the cell suspension counted in step (3) was then added to each well and the plate was incubated in a 5% CO2 incubator at 37 °C. • (6) After the 8th day of incubation, 3D CTG detection reagent was added to each well. • (7) Signal values were read using Envision. • (8) Data analysis: • a) DMSO and culture medium were used to test the stability of the experimental method: • H = DMSO well • L = Culture medium well H, CV% (DMSOwell) = 100 × (SDvalueofDMSOwell/averagevalueofDMSOwell) [formula] L, CV% (correspondingculturemediumwell) = 100 × (SDvalueofculturemediumwell/average [formula] value of corresponding culture medium well) [formula] [formula] • b) IC50 values were fitted using the nonlinear regression equation in XLfit 5.5.0 software. Y = Bottom + (Top−Bottom)/(1+10^(∧)((LogIC50−X)*HillSlope)) [formula] • X: Log value of compound concentration • Y: Inhibition rate (% inh)

HPAC = assay: 3D-CTG proliferation inhibition of HPAC cells; conditions: Homo sapiens, read-out: IC50 (nM) KRAS G12D, Table D-2, titled HPAC, cell proliferation, read after the 8th day of incubation, read-out: GP2D, IC50 (nM) KRAS G12D
Method: as §1, with “L, CV% (correspondingculturemediumwell) = 100 × (SDvalueofculturemediumwell/average [formula] value of corresponding culture medium well) [formula] [formula] • b) IC50 values were fitted using the nonlinear regression equation in XLfit 5.5.0 software. Y = Bottom + (Top−Bottom)/(1+10^(∧)((LogIC50−X)*HillSlope)) [formula] • X: Log value of compound concentration • Y: Inhibition rate (% inh)” left out

[2] = system: pERK in KRAS G12D mutant cell line AGS; assay: Inhibitory effect on intracellular pERK by In-Cell Western Assay (384-well); conditions: Homo sapiens; pERK inhibition, AGS cells, 3 h incubation; read-out: AGS, IC50 (nM) KRAS p.G12D
Method: (7) The cells were fixed. (8) The cells were washed twice with PBS. (9) The blocking solution was added and the cells were incubated at room temperature for 1 h. […] (11) The cells were washed twice with PBST (PBS + 0.05% Tween 20) for 2 minutes each time.

Panc04.03 = assay: 3D-CTG proliferation inhibition of KRAS G12D mutant cells; conditions: Homo sapiens, Panc 04.03, cell proliferation, read after the 7th day of incubation
Method: (§2) (1) On the first day, the following cells were revived with the corresponding culture medium and incubated in a 5% CO2 incubator at 37 °C until confluence:
(§3) (2) On the second day, the cells were rinsed once with PBS, preheated trypsin was added, and the cells were placed in a 37 °C 5% CO2 incubator for digestion for 3~5 minutes. The digestion was terminated by adding an appropriate amount of complete culture medium (containing 10% fetal bovine serum), and the cells were transferred to a centrifuge tube and centrifuged at 1000 rpm for 5 minutes. (3) The cells were resuspended in complete culture medium, counted, and adjusted to the appropriate cell concentration with complete culture medium. (4) 90 µl/well of cell suspension was added to a 96-well plate and incubated in a 5% CO2 incubator at 37 °C overnight. (5) Each well was added with 10 µl of the prepared 10× serial dilution compound (final DMSO concentration was 0.5%) and incubated in a 37°C 5% CO2 incubator. (6) After the 7th day of incubation, 50 µl of 3D CTG detection reagent was added to each well and the cells were shaken at 350 rpm for 20 minutes. (7) Signal values were read using an enzyme meter. (8) Data analysis: IC50 values were fitted using the nonlinear regression equation in Graphpad software. […]

ASPC-1 = assay: as above; conditions: Homo sapiens, ASPC1, cell proliferation, read after the 7th day of incubation
Method: as §2, §3

Q: What does the source list for `C#Cc1c(F)ccc2cc(O)cc(-c3nc(C#CC)c4c(N5CC6CCC(C5)N6)nc(OCC56CC(=C)CN5CC(=C)C6)nc4c3F)c12` [Example 2]?
A: IC50 [1]: 0.86 nM; IC50 (GP2D): 0.17 nM; IC50 (HPAC): 0.77 nM; IC50 [2]: 0.4 nM; IC50 (Panc04.03): 0.85 nM; IC50 (ASPC-1): 0.42 nM

Q: `C#Cc1c(F)ccc2cc(O)cc(-c3nc(C#CC)c4c(N5CC6CCC(C5)N6)nc(OCC56CCCN5CC(=C)C6)nc4c3F)c12` (centres unmarked) [Example 5] was tested. Which IC50 (GP2D) did it give?
A: The IC50 was 0.07 nM.

Q: For `C#Cc1c(F)ccc2cc(O)cc(-c3nc(C#C)c4c(N5CC6CCC(C5)N6)nc(OCC56CC(=C)CN5CC(=C)C6)nc4c3F)c12` [Example 6], which IC50 (GP2D) is on record?
A: Its IC50 is 1.6 nM.

Q: With `C=C1CN2CC(=C)CC2(COc2nc(N3CC4CCC(C3)N4)c3c(C#CC)nc(-c4cc(O)cc5ccc(F)c(CC)c45)c(F)c3n2)C1` [Example 9] as the compound, how does the IC50 (GP2D) read?
A: The IC50 was 0.19 nM.

Q: For `C=C1CN2CC(=C)CC2(COc2nc(N3CC4CCC(C3)N4)c3c(C#CC)nc(-c4cc(N)cc(Cl)c4C(F)(F)F)c(F)c3n2)C1` [Example 10], which IC50 (GP2D) is on record?
A: Its IC50 is 12.4 nM.

Q: Which IC50 (GP2D) does the source give for `C#Cc1c(F)ccc2cc(O)cc(-c3nc(C#CC)c4c(N5CC6CCC(C5)N6)nc(OCC56CCCN5CC(=CF)C6)nc4c3F)c12` (centres unmarked) [Example 11] here?
A: The IC50 was 0.03 nM.
